Results from US10689354B2, “Aminoazole derivative” (Teijin Pharma Limited, priority 2015, dated 2020).

Legend:
[1] = biological target: T1, human androgen receptor (Homo sapiens, UniProt P10275); test: Reporter assay of an androgen receptor responsive sequence (luciferase, transiently transfected HEK293 cells); assay type: cell-based; conditions: 24 hours incubation, relative to activity of 100 nM DHT, read-out: AR transcriptive activity (pEC50) (converted)
T1 construct: expressed in transfected cells; host or cells: HEK293
T1 sequence (P10275 1-920): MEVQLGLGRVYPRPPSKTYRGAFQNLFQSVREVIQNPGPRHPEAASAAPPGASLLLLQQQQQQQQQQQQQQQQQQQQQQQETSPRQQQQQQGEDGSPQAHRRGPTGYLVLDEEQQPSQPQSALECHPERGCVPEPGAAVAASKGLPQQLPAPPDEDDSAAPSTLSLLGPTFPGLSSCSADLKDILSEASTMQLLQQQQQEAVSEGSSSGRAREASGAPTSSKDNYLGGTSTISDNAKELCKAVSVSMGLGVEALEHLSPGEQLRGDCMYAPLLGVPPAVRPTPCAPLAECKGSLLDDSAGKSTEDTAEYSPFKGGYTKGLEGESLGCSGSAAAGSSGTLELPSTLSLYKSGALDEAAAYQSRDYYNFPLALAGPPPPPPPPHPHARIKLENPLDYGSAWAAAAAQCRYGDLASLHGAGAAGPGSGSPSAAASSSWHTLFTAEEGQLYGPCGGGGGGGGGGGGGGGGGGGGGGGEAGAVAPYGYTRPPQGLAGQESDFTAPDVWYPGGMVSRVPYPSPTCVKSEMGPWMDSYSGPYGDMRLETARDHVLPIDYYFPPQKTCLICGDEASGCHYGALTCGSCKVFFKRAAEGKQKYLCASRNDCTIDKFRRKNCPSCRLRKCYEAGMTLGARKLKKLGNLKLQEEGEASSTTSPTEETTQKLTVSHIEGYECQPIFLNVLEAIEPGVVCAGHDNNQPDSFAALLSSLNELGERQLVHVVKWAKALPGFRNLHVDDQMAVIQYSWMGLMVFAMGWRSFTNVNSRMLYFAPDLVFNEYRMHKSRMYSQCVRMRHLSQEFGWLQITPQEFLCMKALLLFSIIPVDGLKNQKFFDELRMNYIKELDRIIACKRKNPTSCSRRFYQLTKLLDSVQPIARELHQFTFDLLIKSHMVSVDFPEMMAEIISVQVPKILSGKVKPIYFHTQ
Method in brief: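 HEK293 cells transiently transfected for 3 h with ARE-firefly luciferase, full-length human AR and TK-Renilla plasmids, then exposed to compound for 24 h at 37 °C in 5% charcoal-treated FBS/DMEM. Dual-Glo luminescence read; pEC50 from 4-parameter fit relative to 100 nM DHT.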

[2] = biological target: T2, androgen receptor (AR-LBD) (Rattus norvegicus, UniProt P15207); test: Evaluation of androgen receptor affinity (PolarScreen Androgen Receptor Competitor Assay Kit, Red; fluorescence polarization); conditions: 22° C. for 5 hours, relative to binding rate of 1 μM DHT, read-out: AR affinity (pEC50) (converted)
T2 construct: 5 μL of 2×AR-LBD/Fluoromone AL Red Complex contained in the kit; purchased Invitrogen
T2 sequence (P15207 651-882 limits assumed): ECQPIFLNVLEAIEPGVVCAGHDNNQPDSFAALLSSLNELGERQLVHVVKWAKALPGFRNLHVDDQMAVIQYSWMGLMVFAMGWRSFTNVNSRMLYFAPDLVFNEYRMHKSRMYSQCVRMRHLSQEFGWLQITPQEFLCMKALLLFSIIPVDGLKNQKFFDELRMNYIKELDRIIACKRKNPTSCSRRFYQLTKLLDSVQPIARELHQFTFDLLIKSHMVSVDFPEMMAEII
Method in brief: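 Fluorescence polarization read-out after 5 h at 22° C of compound with a red-fluorophore-labelled AR-LBD complex. Displacement is scaled against 1 μM DHT, and the log reciprocal of the concentration reaching half that effect gives pEC50 via four-parameter curve fitting.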

EC50 [1] [nM] | EC50 [2] [nM] | SMILES
631 | 50.1 | Cc1sc(N(Cc2cccs2)c2ccc(C#N)cc2)nc1C(=O)NS(C)(=O)=O [Compound 77, 2-[4-cyano-N-(2-thienylmethyl)anilino]-5-methyl-N-methylsulfonyl-thiazole-4-carboxamide]
50.1 | 79.4 | CS(=O)(=O)NC(=O)c1nc(N(Cc2ccc(Br)cn2)c2ccc(C#N)cc2)sc1Br [Compound 642, 5-bromo-2-[N-[(5-bromo-2-pyridyl)methyl]-4-cyano-anilino]-N-methylsulfonyl-thiazole-4-carboxamide]
31.6 | 31.6 | Cc1sc(N(Cc2ccc(C(F)(F)F)cc2)c2ccc(C#N)cc2)nc1C(=O)NS(C)(=O)=O [Compound 46, 2-[4-cyano-N-[[4-(trifluoromethyl)phenyl]methyl]anilino]-5-methyl-N-methylsulfonyl-thiazole-4-carboxamide]
316 | 63.1 | CS(=O)(=O)NC(=O)c1nc(N(Cc2ccccc2OC(F)F)c2ccc(C#N)cc2)sc1Cl [Example 275, 5-chloro-2-[4-cyano-N-[[2-(difluoromethoxy)phenyl]methyl]anilino]-N-methylsulfonyl-thiazole-4-carboxamide]
63.1 | 79.4 | CS(=O)(=O)NC(=O)c1nc(N(Cc2ccc(C(F)(F)F)cn2)c2ccc(C#N)cc2)sc1Br [Compound 643, 5-bromo-2-[4-cyano-N-[[5-(trifluoromethyl)-2-pyridyl]methyl]anilino]-N-methylsulfonyl-thiazole-4-carboxamide]
794 | 100 | Cc1sc(N(CCc2ccccc2Cl)c2ccc(C#N)cc2)nc1C(=O)NS(C)(=O)=O [Compound 140, 2-[N-[2-(2-chlorophenyl)ethyl]-4-cyano-anilino]-5-methyl-N-methylsulfonyl-thiazole-4-carboxamide]
39.8 | 39.8 | Cc1sc(N(Cc2ccc(OC(F)(F)F)cc2)c2ccc(C#N)cc2)nc1C(=O)NS(=O)(=O)CCCCO [Example 201, 2-[4-cyano-N-[[4-(trifluoromethoxy)phenyl]methyl]anilino]-N-(4-hydroxybutylsulfonyl)-5-methyl-thiazole-4-carboxamide]
631 | 316 | Cc1sc(N(Cc2cccc(N)c2)c2ccc(C#N)cc2)nc1C(=O)NS(C)(=O)=O [Example 203, 2-[N-[(3-aminophenyl)methyl]-4-cyano-anilino]-5-methyl-N-methylsulfonyl-thiazole-4-carboxamide]
25.1 | 31.6 | CS(=O)(=O)NC(=O)c1nc(N(Cc2ccc(C(F)(F)F)cc2)c2ccc(C#N)cc2)sc1Cl [Example 272, 5-chloro-2-[4-cyano-N-[[4-(trifluoromethyl)phenyl]methyl]anilino]-N-methylsulfonyl-thiazole-4-carboxamide]
25.1 | 63.1 | COc1ccc(CN(c2ccc(C#N)cc2)c2nc(C(=O)NS(C)(=O)=O)c(C)s2)cc1 [Compound 342, 2-[4-cyano-N-[(4-methoxyphenyl)methyl]anilino]-5-methyl-N-methylsulfonyl-thiazole-4-carboxamide]
> 10000 | 79.4 | CS(=O)(=O)NC(=O)c1nc(N(Cc2ccccc2)c2ccc(C#N)cc2)sc1C1CC1 [Compound 660, 2-(N-benzyl-4-cyano-anilino)-5-cyclopropyl-N-methylsulfonyl-thiazole-4-carboxamide]
100 | 31.6 | Cc1sc(N(Cc2ccc(C(F)(F)F)cc2F)c2ccc(C#N)cc2)nc1C(=O)NS(C)(=O)=O [Compound 498, 2-[4-cyano-N-[[2-fluoro-4-(trifluoromethyl)phenyl]methyl]anilino]-5-methyl-N-methylsulfonyl-thiazole-4-carboxamide]
1580 | 158 | Cc1sc(N(CCc2cccc(O)c2)c2ccc(C#N)cc2)nc1C(=O)NS(C)(=O)=O [Compound 401, 2-[4-cyano-N-[2-(3-hydroxyphenyl)ethyl]anilino]-5-methyl-N-methylsulfonyl-thiazole-4-carboxamide]

Continued, compound first:

SMILES | EC50 [1] [nM] | EC50 [2] [nM]
Cc1sc(N(CCc2ccc(Cl)cc2)CC2CCCCC2)nc1C(=O)NS(C)(=O)=O [Compound 697, 2-[2-(4-chlorophenyl)ethyl-(cyclohexylmethyl)amino]-5-methyl-N-methylsulfonyl-thiazole-4-carboxamide] | > 10000 | 251
Cc1sc(N(C[C@@H]2CCCC[C@@H](O)C2)c2ccc(C#N)cc2)nc1C(=O)NS(C)(=O)=O (racemic) [Compound 474, 2-[4-cyano-N-[[trans-3-hydroxycycloheptyl]methyl]anilino]-5-methyl-N-methylsulfonyl-thiazole-4-carboxamide] | 1000 | 794
COCCCS(=O)(=O)NC(=O)c1nc(N(Cc2ccc(Cl)cc2OC(F)F)c2ccc(C#N)cc2)sc1C [Example 194, 2-[N-[[4-chloro-2-(difluoromethoxy)phenyl]methyl]-4-cyano-anilino]-N-(3-methoxypropylsulfonyl)-5-methyl-thiazole-4-carboxamide] | 2510 | 63.1
Cc1oc(N(CCc2ccc(OC(F)(F)F)cc2)Cc2nc(C3CC3)no2)nc1C(=O)NS(C)(=O)=O [Compound 560, 2-[(3-cyclopropyl-1,2,4-oxadiazol-5-yl)methyl-[2-[4-(trifluoromethoxy)phenyl]ethyl]amino]-5-methyl-N-methylsulfonyl-oxazole-4-carboxamide] | 1000 | 50.1
Cc1sc(N(Cc2ccc(OC3CCCC3)cc2)c2ccc(C#N)cc2)nc1C(=O)NS(C)(=O)=O [Compound 581, 2-[4-cyano-N-[[4-(cyclopentoxy)phenyl]methyl]anilino]-5-methyl-N-methylsulfonyl-thiazole-4-carboxamide] | 501 | 25.1
Cc1sc(N(CCc2ccc(C#N)cc2)Cc2ccc(Cl)cc2)nc1C(=O)NS(=O)(=O)C1CC1 [Compound 714, 2-[(4-chlorophenyl)methyl-[2-(4-cyanophenyl)ethyl]amino]-N-cyclopropylsulfonyl-5-methyl-thiazole-4-carboxamide] | 1260 | 79.4
Cc1sc(N(CC2CCCCC2)c2ccc(C#N)cc2)nc1C(=O)NS(C)(=O)=O [Compound 344, 2-[4-cyano-N-(cyclohexylmethyl)anilino]-5-methyl-N-methylsulfonyl-thiazole-4-carboxamide] | 794 | 39.8
COCCCS(=O)(=O)NC(=O)c1nc(N(CCc2ccc(C#N)cc2)Cc2ccc(F)cc2Cl)oc1C [Compound 558, 2-[(2-chloro-4-fluoro-phenyl)methyl-[2-(4-cyanophenyl)ethyl]amino]-N-(3-methoxypropylsulfonyl)-5-methyl-oxazole-4-carboxamide] | > 10000 | 63.1
CCc1oc(N(Cc2cc3ccccc3s2)c2ccc(C#N)cc2)nc1C(=O)NS(C)(=O)=O [Compound 626, 2-[N-(benzothiophen-2-ylmethyl)-4-cyano-anilino]-5-ethyl-N-methylsulfonyl-oxazole-4-carboxamide] | 79.4 | 15.8
CCS(=O)(=O)NC(=O)c1nc(N(CCc2ccc(Cl)cc2)Cc2ccc(Cl)cc2)sc1C [Compound 693, 2-[2-(4-chlorophenyl)ethyl-[(4-chlorophenyl)methyl]amino]-N-ethylsulfonyl-5-methyl-thiazole-4-carboxamide] | 200 | 31.6
